Measured values: publication PMC12310023 (PLOS Neglected Tropical Diseases, 2025)
Read-outs that look alike come from different tables or passages of the source.

Experiments:
CYP3A4 = CYP3A4 (Homo sapiens, UniProt P08684); assay: biochemical
CYP2B6 [1] = target: T1, CYP2B6 (Homo sapiens, UniProt P20813); assay: in vitro; conditions: recombinant CYP2B6 supersomes
T1 sequence (P20813 1-491): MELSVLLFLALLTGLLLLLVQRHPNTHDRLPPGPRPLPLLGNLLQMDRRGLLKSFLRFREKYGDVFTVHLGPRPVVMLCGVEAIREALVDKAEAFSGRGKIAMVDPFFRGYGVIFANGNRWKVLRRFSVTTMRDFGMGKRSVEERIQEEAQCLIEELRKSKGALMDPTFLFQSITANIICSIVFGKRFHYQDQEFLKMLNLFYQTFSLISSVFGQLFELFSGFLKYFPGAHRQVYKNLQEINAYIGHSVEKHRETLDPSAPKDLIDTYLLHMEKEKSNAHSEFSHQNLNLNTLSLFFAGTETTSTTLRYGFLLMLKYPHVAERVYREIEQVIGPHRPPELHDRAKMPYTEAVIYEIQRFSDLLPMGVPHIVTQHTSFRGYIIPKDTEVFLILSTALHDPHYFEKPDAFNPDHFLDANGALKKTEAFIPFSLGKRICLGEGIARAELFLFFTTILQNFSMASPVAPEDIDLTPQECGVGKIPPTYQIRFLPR

Hepatocyte stability [2] = conditions: dog
CYP3A12 = assay: CYP Induction Assay in dog hepatocytes; conditions: 30 and 100 μM, 48 h
[3] = Mouse plasma, brain and GI exposure PK, Balb/c, 30 mg/kg PO; conditions: 6 h, after BKI-1708
NLuc C. parvum (Calibr) = assay: Calibr panel, UA Nanoluc C. parvum count; type: cell-based; conditions: Cryptosporidium parvum
C. parvum CDPK1 = C. parvum CDPK1 (Cryptosporidium parvum, UniProt A3FQ16); assay: CpCDPK1 enzyme inhibition; type: biochemical
Chain of C. parvum CDPK1 (A3FQ16 1-538): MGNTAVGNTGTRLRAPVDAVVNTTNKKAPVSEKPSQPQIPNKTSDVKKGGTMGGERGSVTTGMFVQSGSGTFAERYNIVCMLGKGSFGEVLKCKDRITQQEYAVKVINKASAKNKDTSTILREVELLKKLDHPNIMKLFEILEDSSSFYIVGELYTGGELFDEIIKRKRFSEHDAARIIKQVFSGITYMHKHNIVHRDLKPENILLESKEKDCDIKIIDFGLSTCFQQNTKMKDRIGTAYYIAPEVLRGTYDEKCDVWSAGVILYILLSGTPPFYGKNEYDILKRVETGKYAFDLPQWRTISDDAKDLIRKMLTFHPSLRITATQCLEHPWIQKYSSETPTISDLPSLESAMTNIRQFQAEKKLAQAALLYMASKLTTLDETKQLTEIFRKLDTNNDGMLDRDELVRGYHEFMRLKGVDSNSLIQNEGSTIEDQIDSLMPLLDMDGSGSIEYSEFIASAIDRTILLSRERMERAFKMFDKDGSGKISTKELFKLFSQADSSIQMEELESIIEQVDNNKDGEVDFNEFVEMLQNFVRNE
Description: […]. […] All other methods are specified in S1 File.

CYP2B6 [4] = target: T1, CYP2B6; assay: CYP reaction phenotyping, recombinant supersomes
C. hominis TU502 isolate = assay: Calibr high-content imaging Cryptosporidium panel; type: cell-based, Cryptosporidium hominis; conditions: Cryptosporidium hominis
PPARγ = target: T2, PPARγ (Homo sapiens, UniProt P37231); assay: Cerep binding assay; conditions: agonist radioligand, mean
T2 construct: Cerep (Eurofins, France)
T2 sequence (P37231 whole entry): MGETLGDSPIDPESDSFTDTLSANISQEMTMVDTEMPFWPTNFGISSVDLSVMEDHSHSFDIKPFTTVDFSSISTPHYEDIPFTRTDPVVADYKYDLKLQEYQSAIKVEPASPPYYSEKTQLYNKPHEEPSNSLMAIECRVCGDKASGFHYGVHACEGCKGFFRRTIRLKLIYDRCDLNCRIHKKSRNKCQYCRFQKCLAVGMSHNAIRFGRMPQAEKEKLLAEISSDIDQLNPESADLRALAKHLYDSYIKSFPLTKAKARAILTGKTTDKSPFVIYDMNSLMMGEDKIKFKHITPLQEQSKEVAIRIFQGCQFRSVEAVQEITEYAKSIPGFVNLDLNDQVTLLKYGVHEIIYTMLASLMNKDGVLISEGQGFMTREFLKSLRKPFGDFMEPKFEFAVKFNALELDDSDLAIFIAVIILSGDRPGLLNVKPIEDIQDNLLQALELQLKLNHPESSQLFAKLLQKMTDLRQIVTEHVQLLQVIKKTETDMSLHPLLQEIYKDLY

Hepatocyte stability [5] = conditions: rat
CYP1A2 = target: T3, CYP1A2 (Homo sapiens, UniProt P05177); assay: biochemical
T3 sequence (P05177 1-516): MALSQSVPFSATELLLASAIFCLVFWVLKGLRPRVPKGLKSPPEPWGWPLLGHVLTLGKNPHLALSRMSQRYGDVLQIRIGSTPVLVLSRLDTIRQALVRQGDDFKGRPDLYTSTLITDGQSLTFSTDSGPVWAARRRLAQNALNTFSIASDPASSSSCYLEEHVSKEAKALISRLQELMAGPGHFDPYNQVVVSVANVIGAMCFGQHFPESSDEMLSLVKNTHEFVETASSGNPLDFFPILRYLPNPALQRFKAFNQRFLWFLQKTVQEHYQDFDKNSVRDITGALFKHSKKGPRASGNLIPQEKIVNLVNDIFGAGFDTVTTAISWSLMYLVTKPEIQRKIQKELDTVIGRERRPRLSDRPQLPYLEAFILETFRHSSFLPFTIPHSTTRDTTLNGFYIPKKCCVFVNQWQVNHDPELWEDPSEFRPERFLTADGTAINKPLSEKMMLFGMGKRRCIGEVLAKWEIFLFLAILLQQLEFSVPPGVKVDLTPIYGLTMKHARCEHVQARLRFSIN

Hepatocyte stability [6] = conditions: monkey
[7] = HCT-8 host cell count (Calibr); conditions: human
[8] = Plasma protein binding, equilibrium dialysis; conditions: dog
5-HT2B = target: T4, 5-HT2B (Homo sapiens, UniProt P41595); assay: Cerep cellular and nuclear receptor functional assay; type: cell-based
T4 construct: Cerep (Eurofins, France)
T4 sequence (P41595 whole entry): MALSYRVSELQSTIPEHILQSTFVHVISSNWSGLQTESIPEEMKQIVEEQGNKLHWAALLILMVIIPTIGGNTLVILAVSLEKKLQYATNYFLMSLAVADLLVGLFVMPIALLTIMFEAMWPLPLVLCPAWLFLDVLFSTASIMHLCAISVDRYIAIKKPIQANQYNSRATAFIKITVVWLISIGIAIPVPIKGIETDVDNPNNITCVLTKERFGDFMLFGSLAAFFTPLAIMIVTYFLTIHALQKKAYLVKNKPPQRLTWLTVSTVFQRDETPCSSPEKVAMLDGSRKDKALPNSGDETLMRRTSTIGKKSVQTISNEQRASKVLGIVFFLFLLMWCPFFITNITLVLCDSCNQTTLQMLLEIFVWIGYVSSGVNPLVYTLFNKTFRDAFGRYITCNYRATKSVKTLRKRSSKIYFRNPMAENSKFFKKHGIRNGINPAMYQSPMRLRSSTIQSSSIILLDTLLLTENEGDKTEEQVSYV

[9] = liver microsomes and primary hepatocytes

Chain of CYP3A4 (P08684 whole entry): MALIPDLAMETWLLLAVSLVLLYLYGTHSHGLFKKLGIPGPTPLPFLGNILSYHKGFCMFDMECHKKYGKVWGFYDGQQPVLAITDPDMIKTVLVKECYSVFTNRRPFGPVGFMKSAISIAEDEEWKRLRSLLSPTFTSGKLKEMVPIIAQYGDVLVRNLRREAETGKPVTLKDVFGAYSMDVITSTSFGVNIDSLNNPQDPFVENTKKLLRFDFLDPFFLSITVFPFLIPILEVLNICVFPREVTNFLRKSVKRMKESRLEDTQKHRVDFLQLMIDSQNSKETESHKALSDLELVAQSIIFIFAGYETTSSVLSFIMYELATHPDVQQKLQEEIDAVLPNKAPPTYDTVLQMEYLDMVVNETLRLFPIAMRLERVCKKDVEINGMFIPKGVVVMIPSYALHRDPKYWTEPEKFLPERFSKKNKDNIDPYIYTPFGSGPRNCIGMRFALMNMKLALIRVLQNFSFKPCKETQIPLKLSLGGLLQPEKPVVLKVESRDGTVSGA

SMILES: CC1(C)Cn2nc(-c3ccc4cc(OC5CC5)ccc4c3)c(C(N)=O)c2NC1O (centres unmarked) [M2]
- IC50 (CYP3A4): > 40 µM
- CLint scaled (CYP2B6 [1]): 0.35 mL/min/kg
- half-life (CYP2B6 [1]): 2.65 h
- LM:hepatocyte CLint_scaled ratio (Hepatocyte stability [2]; [9]): <2.5
- CLint scaled (Hepatocyte stability [2]; primary hepatocytes): 13.3 mL/min/kg
- half-life (Hepatocyte stability [2]; primary hepatocytes): 6.85 h
- hepatocyte CLint (Hepatocyte stability [2]; primary hepatocytes): 3.4 µL/min/1e6 cells
- induction of CYP3A12 (CYP3A12): not found to be inducers
- M2 peak level in jejunum, ileum, cecum/colon [3]: > 1 µM
- EC50 (NLuc C. parvum (Calibr); Replicate 1, read-out: UA Nanoluc C. parvum Count EC50): 0.468 µM
- EC90 (NLuc C. parvum (Calibr); Replicate 1, read-out: UA Nanoluc C. parvum Count EC90): 1.46 µM
- EC50 (NLuc C. parvum (Calibr); Replicate 2, read-out: UA Nanoluc C. parvum Count EC50): 0.212 µM
- EC90 (NLuc C. parvum (Calibr); Replicate 2, read-out: UA Nanoluc C. parvum Count EC90): 1.01 µM
- EC50 (NLuc C. parvum (Calibr); read-out: EC50): 0.34 µM
- EC90 (NLuc C. parvum (Calibr); read-out: EC90): 1.24 µM
- IC50 (C. parvum CDPK1): 0.0925 µM
- fold reduction in potency compared to BKI-1708 (C. parvum CDPK1): 132 fold
- % contribution (CYP2B6 [4]): 5.1%
- CLint (CYP2B6 [4]): 0.044 µL/min/pmol
- EC50 (C. hominis TU502 isolate): 0.44 µM
- EC90 (C. hominis TU502 isolate): 1.67 µM
- EC50 (C. hominis TU502 isolate; read-out: TU502 C. hominis Count EC50, Replicate 1): 0.458 µM
- EC50 (C. hominis TU502 isolate; read-out: TU502 C. hominis Count EC50, Replicate 2): 0.428 µM
- EC90 (C. hominis TU502 isolate; read-out: TU502 C. hominis Count EC90, Replicate 1): 1.93 µM
- EC90 (C. hominis TU502 isolate; read-out: TU502 C. hominis Count EC90, Replicate 2): 1.41 µM
- % inhibition of control specific binding (PPARγ; 10 μM): 70.1%
- inhibition at 10 µM (PPARγ; read-out: % inhibition of control specific binding): 70%
- LM:hepatocyte CLint_scaled ratio (Hepatocyte stability [5]; [9]): <0.7
- CLint scaled (Hepatocyte stability [5]; primary hepatocytes): 63.3 mL/min/kg
- half-life (Hepatocyte stability [5]; primary hepatocytes): 1.75 h
- hepatocyte CLint (Hepatocyte stability [5]; primary hepatocytes): 13.2 µL/min/1e6 cells
- IC50 (CYP1A2): > 40 µM
- M2 AUC0-inf (Mouse PK, IFNγ-KO BL6; after BKI-1708 IV 3 mg/kg): 792 ± 18 µmol·min/L
- M2 AUC0-inf (Mouse PK, IFNγ-KO BL6; after BKI-1708 PO 15 mg/kg): 5948 ± 1398 µmol·min/L
- LM:hepatocyte CLint_scaled ratio (Hepatocyte stability [6]; [9]): 5.5
- CLint scaled (Hepatocyte stability [6]; primary hepatocytes): 10 mL/min/kg
- half-life (Hepatocyte stability [6]; primary hepatocytes): 6.48 h
- hepatocyte CLint (Hepatocyte stability [6]; primary hepatocytes): 3.6 µL/min/1e6 cells
- CC50 ([7]; CC50, HCT-8 cells infected with BGF Cp, Replicate 1): > 25 µM
- CC50 ([7]; CC50, HCT-8 cells infected with BGF Cp, Replicate 2): > 25 µM
- CC50 ([7]; CC50, HCT-8 cells infected with Ch, Replicate 1): > 25 µM
- CC50 ([7]; CC50, HCT-8 cells infected with Ch, Replicate 2): > 25 µM
- CC50 ([7]; CC50, HCT-8 cells infected with UA Nluc Cp, Replicate 1): > 25 µM
- CC50 ([7]; CC50, HCT-8 cells infected with UA Nluc Cp, Replicate 2): > 25 µM
- fraction unbound [8]: 0.1
- agonist effect (5-HT2B): no effect up to 100 μM
- IC50 (5-HT2B; read-out: IC50, antagonist effect): 20 µM
